Test results taken from patent US7446111B2, “Amorphous rapamycin 42-ester with 3-hydroxy-2-(hydroxymethyl)-2-methylpropionic acid and its pharmaceutical compositions” (Wyeth, priority 2003, dated 2008).
Converted amounts (≈) assume the structure as drawn. Like-named read-outs stand apart in the source and are kept apart here. One block for each compound: values may come before it.

Experiments:
[1] = physchem; type: physicochemical
Description: A 0.005 M citric acid solution containing 0.2% sodium lauryl sulfate and 0.001% calcium EDTA was adjusted to a pH of about 4.73.
The solutions were then mixed, maintained at room temperature, and shaken on a rotary shaker for about 24 to about 48 hours.
Samples (2 mL) of both the amorphous and crystalline solutions were withdrawn at 24 h and 48 h, filtered through a 0.2 μm filter and analyzed at room temperature using high performance liquid chromatography (HPLC) (Table 4). Solubilities of the samples were then calculated using the data provided in the HPLC chromatograph and techniques used by those of skilled in the art and is provided in Table 4.

[2] = physchem; type: physicochemical; settings: for Solubility: pH 4.6
Description: The solutions were mixed and maintained at room temperature and a pH of about 4.6. The vials were then shaken on a rotary shaker for 24 hours.
Samples (2 mL) of both of the amorphous and crystalline solutions were withdrawn at selected time intervals (0, 0.5, 3, 5, and 24 h), filtered through a 0.2 μm filter and analyzed at room temperature using high performance liquid chromatography (HPLC) (Table 1). The solubility of the samples was calculated using the data provided in the HPLC chromatograph and techniques used by those skilled in the art and is provided in Table 3.

[3] = 5° C., 1 Week, sample prepared by precipitation
[4] = 40° C./75% RH, 1 Week, sample prepared by precipitation
[5] = Initial, sample prepared by precipitation
[6] = RT, 1 Week, sample prepared by precipitation
[7] = 5° C., 1 week, sample prepared by evaporation
[8] = 5° C., 2 weeks, sample prepared by evaporation
[9] = 40° C./75% RH, 1 week, sample prepared by evaporation
[10] = 40° C./75% RH, 2 weeks, sample prepared by evaporation
[11] = Initial, sample prepared by evaporation
[12] = 25 °C, pH 4.73, aqueous with cosolvent or surfactant or cyclodextrin, thermodynamic from solid
[13] = 25 °C, pH 4.6, aqueous buffer, thermodynamic from solid

Solubility relative to crystalline form [1]: about 3.5 times
Solubility ([1]; pH 4.73): about 2.17 mg/mL
Solubility relative to crystalline form [2]: 3 times
Solubility relative to crystalline form (general statement) [2]: at least 3 times
Solubility [2]: about 1.88 μg/mL
Temperature up to which the amorphous form is stable: up to 5 °C
Compound: COC1CC2CCC(C)C(O)(O2)C(=O)C(=O)N2CCCCC2C(=O)OC(C(C)CC2CCC(OC(=O)C(C)(CO)CO)C(OC)C2)CC(=O)C(C)/C=C(\C)C(O)C(OC)C(=O)C(C)CC(C)/C=C/C=C/C=C/1C (centres unmarked) [amorphous rapamycin 42-ester with 3-hydroxy-2-(hydroxymethyl] [rapamycin 42-ester with 3-hydroxy-2-(hydroxymethyl)-2-methylpropionic acid]

SLI [3]: 0.15%
Strength [3]: 98.71%
Total Imp [3]: 0.44%
SECO [4]: 0.04%
SLI [4]: 0.32%
Strength [4]: 91.36%
Total Imp [4]: 0.70%
SLI [5]: 0.20%
Strength [5]: 97.93%
Total Imp [5]: 0.41%
SLI [6]: 0.12%
Strength [6]: 97.49%
Total Imp [6]: 0.37%
Compound: COC1CC2CCC(C)C(O)(O2)C(=O)C(=O)N2CCCCC2C(=O)OC(C(C)CC2CCC(OC(=O)C(C)(CO)CO)C(OC)C2)CC(=O)C(C)/C=C(\C)C(O)C(OC)C(=O)C(C)CC(C)/C=C/C=C/C=C/1C (centres unmarked) [Amorphous (batch C4), rapamycin 42-ester with 3-hydroxy-2-(hydroxymethyl)-2-methylpropionic acid]

SLI* [7]: 3.91%
Strength [7]: 95.20%
Total Imp [7]: 5.07%
SLI* [8]: 3.74%
Strength [8]: 92.56%
Total Imp [8]: 4.42%
SLI* [9]: 3.93%
Strength [9]: 94.16%
Total Imp [9]: 5.15%
SLI* [10]: 3.72%
Strength [10]: 90.55%
Total Imp [10]: 4.60%
SLI [11]: 0.19%
Strength [11]: Strength = 98.33%,
Total Imp [11]: 0.46%
Compound: CO[C@H]1C[C@@H]2CC[C@@H](C)[C@@](O)(O2)C(=O)C(=O)N2CCCC[C@H]2C(=O)O[C@H]([C@H](C)C[C@@H]2CC[C@@H](OC(=O)C(C)(CO)CO)[C@H](OC)C2)CC(=O)[C@H](C)/C=C(\C)[C@@H](O)[C@@H](OC)C(=O)[C@H](C)C[C@H](C)/C=C/C=C/C=C/1C [batch A1, rapamycin 42-ester with 3-hydroxy-2-(hydroxymethyl)-2-methylpropionic acid]

solubility at 24 h [1, 12]: 640 µg/mL (≈ 621 µM)
solubility at 48 h [1, 12]: 640 µg/mL (≈ 621 µM)
Solubility ([2]; 0 h): 0 µg/mL
solubility at 0.5 h [2, 13]: 0.26 µg/mL (≈ 0.252 µM)
solubility at 3 h [2, 13]: 0.29 µg/mL (≈ 0.281 µM)
solubility at 5 h [2, 13]: 0.23 µg/mL (≈ 0.223 µM)
solubility at 24 h [2, 13]: 0.61 µg/mL (≈ 0.592 µM)
Compound: CO[C@H]1C[C@@H]2CC[C@@H](C)[C@@](O)(O2)C(=O)C(=O)N2CCCC[C@H]2C(=O)O[C@H]([C@H](C)C[C@@H]2CC[C@@H](OC(=O)C(C)(CO)CO)[C@H](OC)C2)CC(=O)[C@H](C)/C=C(\C)[C@@H](O)[C@@H](OC)C(=O)[C@H](C)C[C@H](C)/C=C/C=C/C=C/1C [Crystalline, rapamycin 42-ester with 3-hydroxy-2-(hydroxymethyl)-2-methylpropionic acid]
